How the values were obtained:
Experiment in all cases: relative viability (nuclei count vs DMSO), 5 days (fraction); higher = more cells survive
[1] = compound: CCC1=CN=CN=C1N2CCN(CC2)CC3=NC4=C(N3)C=C(C=C4)C(F)(F)F + CC1(C)CCC(c2ccc(Cl)cc2)=C(CN2CCN(c3ccc(C(=O)NS(=O)(=O)c4ccc(N[C@H](CCN5CCOCC5)CSc5ccccc5)c(S(=O)(=O)C(F)(F)F)c4)cc3)CC2)C1 [Navitoclax] (partner 0.5 µM)
Outline: (§1)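 Cells from lung cancer lines were seeded into 1536-well plates and, one day later, dosed by pin tool. Treatments were either a single drug or a fixed dose of an anchor drug with five library-drug doses (not always all listed) in √10 steps. After 5 days, nuclei were stained in a one-step fixation (final 0.05% Triton X-100, 1% formaldehyde, 1 ug/ml Hoechst) and counted on 4× images, and relative viability is the treated-to-vehicle nuclei ratio, as the median of duplicate plates.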

[2] = compound: CCC1=CN=CN=C1N2CCN(CC2)CC3=NC4=C(N3)C=C(C=C4)C(F)(F)F + N=C(N)NC(=N)NCCc1ccccc1 [Phenformin] (partner 250 µM)
Outline: as §1

[3] = compound: CCn1c(-c2nonc2N)nc2cnc(Oc3cccc(NC(=O)c4ccc(OCCN5CCOCC5)cc4)c3)cc21 + CCNC(=O)c1noc(-c2cc(C(C)C)c(O)cc2O)c1-c1ccc(CN2CCOCC2)cc1 [Luminespib] (partner 0.01 µM)
Outline: as §1

[4] = compound: CCn1c(-c2nonc2N)nc2cnc(Oc3cccc(NC(=O)c4ccc(OCCN5CCOCC5)cc4)c3)cc21 + CC(=O)Nc1cccc(-n2c(=O)n(C3CC3)c(=O)c3c(Nc4ccc(I)cc4F)n(C)c(=O)c(C)c32)c1 [Trametinib] (partner 0.02 µM)
Outline: as §1

Row | Cell Line | relative viability ([1]; first compound 0.04 µM) | relative viability ([1]; first compound 0.1265 µM) | relative viability ([1]; first compound 0.4 µM) | relative viability ([1]; first compound 1.265 µM) | relative viability ([1]; first compound 4 µM) | relative viability ([2]; first compound 0.04 µM) | relative viability ([2]; first compound 0.1265 µM) | relative viability ([2]; first compound 0.4 µM) | relative viability ([2]; first compound 1.265 µM) | relative viability ([2]; first compound 4 µM) | relative viability ([3]; first compound 0.04 µM) | relative viability ([3]; first compound 0.1265 µM) | relative viability ([3]; first compound 0.4 µM) | relative viability ([3]; first compound 1.265 µM) | relative viability ([3]; first compound 4 µM) | relative viability ([4]; first compound 0.04 µM) | relative viability ([4]; first compound 0.1265 µM) | relative viability ([4]; first compound 0.4 µM) | relative viability ([4]; first compound 1.265 µM) | relative viability ([4]; first compound 4 µM)
1 | NCI-H2347 | 0.711 | 0.733 | 0.783 | 0.665 | 0.729 | 0.314 | 0.397 | 0.498 | 0.243 | 0.304 | 0.399 | 0.451 | 0.599 | 0.283 | 0.302 | 0.261 | 0.279 | 0.298 | 0.238 | 0.262
2 | NCI-H1437 | 1.09 | 1 | 0.944 | 0.822 | 0.724 | 0.343 | 0.295 | 0.302 | 0.255 | 0.317 | 1.25 | 1.23 | 1.11 | 0.897 | 0.766 | 0.599 | 0.556 | 0.517 | 0.435 | 0.403
3 | SK-MES-1 | 1.15 | 1.22 | 1.07 | 1.2 | 1.31 | 0.613 | 0.608 | 0.583 | 0.622 | 0.528 | 0.728 | 0.681 | 0.525 | 0.485 | 0.37 | 0.534 | 0.519 | 0.402 | 0.391 | 0.328
4 | NCI-H3122 | 1.02 | 0.996 | 0.997 | 0.987 | 1.03 | 0.372 | 0.362 | 0.318 | 0.359 | 0.342 | 0.0608 | 0.0978 | 0.0882 | 0.0945 | 0.0955 | 0.175 | 0.189 | 0.254 | 0.226 | 0.247
5 | NCI-H2023 | 0.987 | 0.941 | 0.962 | 1.03 | 1.12 | 0.449 | 0.433 | 0.442 | 0.378 | 0.393 | 0.794 | 0.72 | 0.67 | 0.381 | 0.332 | 0.708 | 0.652 | 0.474 | 0.317 | 0.237
6 | PC-14 | 1.02 | 1.03 | 1.01 | 0.984 | 0.982 | 0.463 | 0.472 | 0.561 | 0.669 | 0.567 | 0.15 | 0.136 | 0.154 | 0.154 | 0.173 | 0.632 | 0.379 | 0.468 | 0.426 | 0.396
7 | NCI-H727 | 0.487 | 0.501 | 0.357 |  | 0.35 | 0.505 | 0.541 | 0.439 |  | 0.671 | 0.418 | 0.264 | 0.352 | 0.379 | 0.413 |  | 0.392 | 0.386 | 0.461 | 0.423
8 | NCI-H1734 | 0.852 | 0.839 | 0.856 |  | 0.907 | 0.377 | 0.379 | 0.427 | 0.381 | 0.445 | 0.165 | 0.21 | 0.192 | 0.15 | 0.166 | 0.676 | 0.729 | 0.69 | 0.603 | 0.467
9 | NCI-H1650 | 1.26 | 1.08 | 1.22 | 1.02 | 1.4 | 0.484 | 0.519 | 0.392 |  | 0.416 | 0.248 | 0.198 | 0.196 | 0.191 | 0.183 | 0.668 | 0.543 | 0.52 | 0.37 | 0.496
10 | NCI-H647 | 1.21 | 0.968 |  |  | 1.04 | 0.555 | 0.589 | 0.518 | 0.461 | 0.626 | 0.18 | 0.139 | 0.269 | 0.106 | 0.116 | 0.494 | 0.38 | 0.261 | 0.303 | 0.286
11 | NCI-H1944 | 0.97 | 0.948 | 1 |  | 0.916 | 0.239 | 0.188 | 0.187 | 0.162 | 0.227 | 0.575 | 0.728 | 0.765 | 0.675 | 0.56 | 0.409 | 0.365 | 0.441 | 0.467 | 0.359
12 | LK-2 | 0.773 | 0.801 | 0.714 | 0.688 | 0.761 | 0.416 | 0.565 | 0.407 | 0.23 | 0.523 | 0.216 | 0.147 | 0.169 | 0.202 | 0.244 | 0.753 | 0.969 | 0.65 | 0.666 | 0.899
13 | HCC-15 | 0.702 | 0.67 | 0.757 | 0.694 | 0.71 | 0.487 | 0.46 | 0.465 | 0.445 | 0.434 | 0.301 | 0.227 | 0.376 | 0.207 | 0.249 | 0.38 | 0.36 | 0.348 | 0.39 | 0.378
14 | NCI-H838 | 1.23 | 1.12 | 1.11 | 1.14 | 1.07 | 0.575 | 0.507 | 0.536 | 0.434 | 0.596 | 0.366 | 0.235 | 0.252 | 0.2 | 0.208 | 0.347 | 0.231 | 0.213 | 0.17 | 0.188

From the supplement of paper PMC10307832
